Values of other authors in article PMC9276671, “A first-in-human Phase I dose-escalation trial of the novel therapeutic peptide, ALM201, demonstrates a favourable safety profile in unselected patients with ovarian cancer and other advanced solid tumours” (British Journal of Cancer, 2022).
No end group written: not given here.

Tested on: HT29, DU145 and MDA-231 xenografts
Settings: cited from earlier work

IRQQPRDPPTETLELEVSPDPAS [ALM201]
Tumour size relative to vehicle controls (0.3 mg/kg and 3.0 mg/kg daily or three times weekly, HT29, DU145 and MDA-231, ref Investigator brochure (IB)): significant inhibition of tumour size
Anti-tumour activity in vivo (single agent or in combination with chemotherapeutic agents, tumour xenograft models, ref Almac Discovery, manuscript in preparation): significant anti-tumour activity
